Values joined by “and” are separate entries in the source; they are usually repeats but may differ in a detail not shown here. Equal entries are not always repeated. Inconclusive results and toxic doses are left out.
System: BDF1 mice, P388 leukemia ip, median survival T/C
Assay: NCI In Vivo Anticancer Drug Screen. Data for tumor model P388 Leukemia (intraperitoneal) in B6D2F1 (BDF1) mice
Conditions: endpoint: median survival time, higher = longer survival
Outline: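 Reported as T/C, where T is the survival measurement in dosed animals and C the same measurement in vehicle controls.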

[1] = dose: 15.0 mg/kg/injection, schedule: Q01DX009 (ip), vehicle: saline
[2] = dose: 100.0 mg/kg/injection, schedule: Q01DX009 (ip), vehicle: saline with Tween-80
[3] = dose: 50.0 mg/kg/injection, schedule: Q01DX009 (ip), vehicle: saline with Tween-80
[4] = dose: 200.0 mg/kg/injection, schedule: Q01DX009 (ip), vehicle: saline with Tween-80

Q: For `CC1(C)N=C(N)N=C(N)N1c1ccc(CCCCc2ccc(S(=O)(=O)F)cc2)c(Cl)c1`, which T/C (dose: 0.75 mg/kg/injection, schedule: Q01DX009 (ip), vehicle: saline) is on record?
A: Its T/C is 160 % of control.

Q: And the T/C (dose: 1.0 mg/kg/injection, schedule: Q01DX009 (ip), vehicle: saline)?
A: The T/C was 150 % of control.

Q: And the T/C (dose: 1.5 mg/kg/injection, schedule: Q01DX009 (ip), vehicle: saline)?
A: Its T/C is 151 % of control.

Q: What about the T/C (dose: 1.78 mg/kg/injection, schedule: Q01DX009 (ip), vehicle: saline) of the same compound?
A: The T/C was 168 % of control.

Q: And the T/C (dose: 2.25 mg/kg/injection, schedule: Q01DX009 (ip), vehicle: saline)?
A: The T/C was 174 % of control.

Q: And the T/C (dose: 2.66 mg/kg/injection, schedule: Q01DX009 (ip), vehicle: saline)?
A: The T/C was 174 % of control.

Q: And the T/C (dose: 4.0 mg/kg/injection, schedule: Q01DX009 (ip), vehicle: saline)?
A: The T/C was 157 % of control.

Q: What about the T/C (dose: 4.4 mg/kg/injection, schedule: Q01DX009 (ip), vehicle: saline) of the same compound?
A: Its T/C is 174 % of control.

Q: And the T/C (dose: 6.0 mg/kg/injection, schedule: Q01DX009 (ip), vehicle: saline)?
A: The T/C was 158 % of control.

Q: And the T/C (dose: 6.6 mg/kg/injection, schedule: Q01DX009 (ip), vehicle: saline)?
A: The T/C was 173 % of control.

Q: And the T/C (dose: 10.0 mg/kg/injection, schedule: Q01DX009 (ip), vehicle: saline)?
A: The T/C was 201 % of control.

Q: What about the T/C (dose: 12.5 mg/kg/injection, schedule: Q04DX003 (ip), vehicle: saline) of the same compound?
A: Its T/C is 118 % of control.

Q: What about the T/C [1] of the same compound?
A: Its T/C is 204 % of control.

Q: What about the T/C (dose: 18.7 mg/kg/injection, schedule: Q01DX009 (ip), vehicle: saline) of the same compound?
A: Its T/C is 195 % of control.

Q: What about the T/C (dose: 37.5 mg/kg/injection, schedule: Q01DX009 (ip), vehicle: saline) of the same compound?
A: The T/C was 245 % of control.

Q: What about the T/C (dose: 50.0 mg/kg/injection, schedule: Q04DX003 (ip), vehicle: saline) of the same compound?
A: The T/C was 154 % of control.

Q: And the T/C (dose: 75.0 mg/kg/injection, schedule: Q04DX003 (ip), vehicle: saline)?
A: The T/C was 150 % of control.

Q: Which results are given for `CCN(CC)CCOC(=O)c1ccc(OCCOc2ccc(C(C)(C)CC(C)(C)C)cc2)c([N+](=O)[O-])c1`?
A: T/C (dose: 75.0 mg/kg/injection, schedule: Q04DX003 (ip), vehicle: saline sonified): 110 % of control; T/C (dose: 150.0 mg/kg/injection, schedule: Q04DX003 (ip), vehicle: saline sonified): 110 % of control; T/C (dose: 300.0 mg/kg/injection, schedule: Q04DX003 (ip), vehicle: saline sonified): 105 % of control

Q: For `[N-]=[N+]=NC(=O)C1(Br)CCC2c3ccccc3C([N+](=O)[O-])(C1)c1ccccc12` (stereo not given), which T/C (dose: 100.0 mg/kg/injection, schedule: Q04DX003 (ip), vehicle: saline) is on record?
A: Its T/C is 95 % of control.

Q: And the T/C (dose: 200.0 mg/kg/injection, schedule: Q04DX003 (ip), vehicle: saline)?
A: Its T/C is 100 % of control.

Q: And the T/C (dose: 400.0 mg/kg/injection, schedule: Q04DX003 (ip), vehicle: saline)?
A: The T/C was 109 % of control.

Q: `CCNC(C)(C)C(SS)c1ccc(Br)cc1` (stereo not given) was tested. Which T/C (dose: 6.25 mg/kg/injection, schedule: Q01DX009 (ip), vehicle: water) did it give?
A: The T/C was 100 % of control.

Q: And the T/C (dose: 12.5 mg/kg/injection, schedule: Q01DX009 (ip), vehicle: water)?
A: Its T/C is 92 % of control.

Q: And the T/C (dose: 25.0 mg/kg/injection, schedule: Q01DX009 (ip), vehicle: water)?
A: The T/C was 96 % of control.

Q: And the T/C (dose: 25.0 mg/kg/injection, schedule: Q04DX003 (ip), vehicle: water)?
A: The T/C was 102 % of control.

Q: What about the T/C (dose: 50.0 mg/kg/injection, schedule: Q01DX009 (ip), vehicle: water) of the same compound?
A: The T/C was 101 % of control.

Q: And the T/C (dose: 50.0 mg/kg/injection, schedule: Q04DX003 (ip), vehicle: water)?
A: The T/C was 100 % of control.

Q: And the T/C (dose: 100.0 mg/kg/injection, schedule: Q01DX009 (ip), vehicle: water)?
A: Its T/C is 109 % of control.

Q: And the T/C (dose: 100.0 mg/kg/injection, schedule: Q04DX003 (ip), vehicle: water)?
A: The T/C was 102 % of control.

Q: And the T/C (dose: 200.0 mg/kg/injection, schedule: Q01DX009 (ip), vehicle: water)?
A: Its T/C is 101 % of control.

Q: What about the T/C (dose: 200.0 mg/kg/injection, schedule: Q04DX003 (ip), vehicle: water) of the same compound?
A: Its T/C is 106 % of control.

Q: What about the T/C (dose: 400.0 mg/kg/injection, schedule: Q04DX003 (ip), vehicle: water) of the same compound?
A: The T/C was 90 % of control.

Q: `CC(C)n1cnc2c(=S)nc[nH]c21` was tested. Which T/C [2] did it give?
A: The T/C was 91 % of control.

Q: What about the T/C (dose: 100.0 mg/kg/injection, schedule: Q04DX003 (ip), vehicle: saline with Tween-80) of the same compound?
A: The T/C was 100 % of control.

Q: And the T/C (dose: 200.0 mg/kg/injection, schedule: Q04DX003 (ip), vehicle: saline with Tween-80)?
A: The T/C was 104 % of control.

Q: What about the T/C (dose: 400.0 mg/kg/injection, schedule: Q04DX003 (ip), vehicle: saline with Tween-80) of the same compound?
A: The T/C was 113 % of control.

Q: `O=C1c2cc(O)c(O)cc2O[C@H](c2ccc(O)c(O)c2)[C@H]1O` was tested. Which T/C (dose: 7.5 mg/kg/injection, schedule: Q01DX010 (ip), vehicle: saline) did it give?
A: Its T/C is 100 % of control.

Q: What about the T/C [1] of the same compound?
A: The T/C was 113 % of control and 118 % of control.

Q: What about the T/C (dose: 15.0 mg/kg/injection, schedule: Q01DX010 (ip), vehicle: saline) of the same compound?
A: The T/C was 109 % of control.

Q: And the T/C (dose: 30.0 mg/kg/injection, schedule: Q01DX009 (ip), vehicle: saline)?
A: The T/C was 100 % of control.

Q: What about the T/C (dose: 30.0 mg/kg/injection, schedule: Q01DX010 (ip), vehicle: saline) of the same compound?
A: Its T/C is 109 % of control.

Q: And the T/C (dose: 60.0 mg/kg/injection, schedule: Q01DX009 (ip), vehicle: saline)?
A: The T/C was 104 % of control and 122 % of control.

Q: And the T/C (dose: 125.0 mg/kg/injection, schedule: Q01DX009 (ip), vehicle: saline)?
A: The T/C was 104 % of control.

Q: And the T/C (dose: 350.0 mg/kg/injection, schedule: Q01DX009 (ip), vehicle: saline)?
A: Its T/C is 117 % of control.

Q: What does the source list for `CC1(C)CC(C(N)=O)C(C)(C)N1O` (stereo not given)?
A: T/C (dose: 100.0 mg/kg/injection, schedule: Q01DX001 (ip), vehicle: saline): 109 % of control; T/C (dose: 200.0 mg/kg/injection, schedule: Q01DX001 (ip), vehicle: saline): 86 % of control; T/C (dose: 400.0 mg/kg/injection, schedule: Q01DX001 (ip), vehicle: saline): 100 % of control

Q: What does the source list for `Cc1ccc(C(=O)N(O)c2ccccc2)cc1`?
A: T/C [3]: 98 % of control; T/C [2]: 95 % of control; T/C [4]: 104 % of control

Q: `C1=NOC2c3ccc4ccccc4c3CCC12` (stereo not given) was tested. Which T/C (dose: 200.0 mg/kg/injection, schedule: Q04DX003 (ip), vehicle: Klucel (hydroxypropylcellulose) (HPC)) did it give?
A: Its T/C is 87 % of control.

Q: And the T/C (dose: 400.0 mg/kg/injection, schedule: Q04DX003 (ip), vehicle: Klucel (hydroxypropylcellulose) (HPC))?
A: Its T/C is 95 % of control.

Q: `Cc1cc(N2CCOCC2)nc(N2CCOCC2)c1C#N` was tested. Which T/C (dose: 100.0 mg/kg/injection, schedule: Q01DX005 (ip), vehicle: saline with Tween-80) did it give?
A: The T/C was 91 % of control.

Q: What about the T/C (dose: 200.0 mg/kg/injection, schedule: Q01DX005 (ip), vehicle: saline with Tween-80) of the same compound?
A: Its T/C is 99 % of control.

Q: Which results are given for `Cc1nc(N)nc(N)c1-c1ccc(Cl)c(Cl)c1`?
A: T/C (dose: 0.85 mg/kg/injection, schedule: Q01DX009 (ip), vehicle: saline with Tween-80): 100 % of control; T/C (dose: 1.0 mg/kg/injection, schedule: Q02DX005 (ip), vehicle: Klucel (hydroxypropylcellulose) (HPC)): 103 % of control; T/C (dose: 1.0 mg/kg/injection, schedule: Q02DX009 (ip), vehicle: Klucel (hydroxypropylcellulose) (HPC)): 107 % of control; T/C (dose: 2.0 mg/kg/injection, schedule: Q02DX005 (ip), vehicle: Klucel (hydroxypropylcellulose) (HPC)): 111 % of control; T/C (dose: 2.0 mg/kg/injection, schedule: Q02DX009 (ip), vehicle: Klucel (hydroxypropylcellulose) (HPC)): 117 % of control; T/C (dose: 3.0 mg/kg/injection, schedule: Q01DX009 (ip), vehicle: saline with Tween-80): 122 % of control; T/C (dose: 4.0 mg/kg/injection, schedule: Q02DX005 (ip), vehicle: Klucel (hydroxypropylcellulose) (HPC)): 101 % of control; T/C (dose: 4.0 mg/kg/injection, schedule: Q02DX009 (ip), vehicle: Klucel (hydroxypropylcellulose) (HPC)): 121 % of control; T/C (dose: 4.5 mg/kg/injection, schedule: Q01DX009 (ip), vehicle: saline with Tween-80): 118 % of control; T/C (dose: 6.25 mg/kg/injection, schedule: Q01DX009 (ip), vehicle: saline with Tween-80): 86 % of control; T/C (dose: 8.0 mg/kg/injection, schedule: Q02DX005 (ip), vehicle: Klucel (hydroxypropylcellulose) (HPC)): 97 % of control; T/C (dose: 8.0 mg/kg/injection, schedule: Q02DX009 (ip), vehicle: Klucel (hydroxypropylcellulose) (HPC)): 154 % of control; T/C (dose: 16.0 mg/kg/injection, schedule: Q02DX009 (ip), vehicle: Klucel (hydroxypropylcellulose) (HPC)): 117 % of control; T/C (dose: 25.0 mg/kg/injection, schedule: Q04DX003 (ip), vehicle: saline with Tween-80): 172 % of control; T/C (dose: 37.5 mg/kg/injection, schedule: Q04DX003 (ip), vehicle: saline with Tween-80): 118 % of control

Q: Which results are given for `COc1ccc(C(=O)CC(C(=O)O)c2ccc3c(c2)OCO3)cc1OC` (stereo not given)?
A: T/C [2]: 109 % of control; T/C [4]: 100 % of control; T/C (dose: 400.0 mg/kg/injection, schedule: Q01DX009 (ip), vehicle: saline with Tween-80): 104 % of control

Q: For `CCc1nn2c(=O)nc(Oc3ccccc3)nc2s1`, which T/C [3] is on record?
A: The T/C was 101 % of control.

Q: What about the T/C [2] of the same compound?
A: The T/C was 106 % of control.

Q: What about the T/C [4] of the same compound?
A: Its T/C is 98 % of control.

Q: `Cc1nnc2c(=S)[nH]ccn12` was tested. Which T/C (dose: 100.0 mg/kg/injection, schedule: Q01DX001 (ip), vehicle: saline with Tween-80) did it give?
A: The T/C was 113 % of control.

Q: What about the T/C (dose: 200.0 mg/kg/injection, schedule: Q01DX001 (ip), vehicle: saline with Tween-80) of the same compound?
A: Its T/C is 106 % of control.

Q: And the T/C (dose: 400.0 mg/kg/injection, schedule: Q01DX001 (ip), vehicle: saline with Tween-80)?
A: The T/C was 100 % of control.
